Data: patent publication EP2759295A1, “Foam cell specific Liver X Receptor (LXR) alpha agonist, SIRT1 inhibitors as well as p300 inhibitors as pharmaceutically active agents” (Max-Planck-Gesellschaft zur Förderung der Wissenschaften …, priority 2013, dated 2014)
“Also recorded” adds a separate entry of the source.

Legend:
[1] = biological target: T1, LXRβ ligand binding domain (LBD) (Homo sapiens, UniProt P55055); assay: dual luciferase reporter gene assay with LXRβ ligand binding domain in HEK-293 cells; format: cell-based
T1 construct: expressed in transfected cells; host or cells: HEK-293
T1 sequence (P55055 154-460 limits assumed): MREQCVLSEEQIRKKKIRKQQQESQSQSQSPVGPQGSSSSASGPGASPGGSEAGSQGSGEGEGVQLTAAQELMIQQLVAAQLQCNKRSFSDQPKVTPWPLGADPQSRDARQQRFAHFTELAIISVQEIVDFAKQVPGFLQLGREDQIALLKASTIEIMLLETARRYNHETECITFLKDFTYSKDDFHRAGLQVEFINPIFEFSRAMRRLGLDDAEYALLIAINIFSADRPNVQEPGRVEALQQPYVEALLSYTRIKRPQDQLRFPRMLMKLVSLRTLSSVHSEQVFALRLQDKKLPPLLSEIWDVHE
Experimental: (§1) Selection and amplification were performed in E-coli cells. Purification of the plasmids was performed with a plasmid purification kit (Qiagen). For transfection HEK-293 cells were plated in 96-well plates (TPP) at a density of 3.5 x 10^4 cells/well for 24 h. To investigate the ligand binding on LXRα ligand binding domain, 0.04 ng of renilla luciferase coding plasmide pGL4.75 (Promega), 0.04 ng of LXRα-LBD/GAL4-DBD plasmide and 80 ng of firefly luciferase coding plasmide pGL4.31 (Promega) were used in a total volume of 200 µL for each well. In LXRβ binding assay 40 ng of LXRβ-LBD/GAL4-DBD plasmide were applied in each transfection mix. Transfection was carried out for 4 h with Lipofectamine 2000 Transfection Reagent (Invitrogen) in Opti-MEM medium (Invitrogen). Ligand treatment was performed at different concentrations for 24 h. For lysis and detection dual-luciferase reporter gene assay system (Promega) and POLARstar Omega (BMG LABTECH) were used.

foam cells [2] = assay: qPCR gene expression of LXRα target genes in foam cells; format: cell-based, human; details: 10 µM
Experimental: For generating macrophages differentiation was induced by 10^-8 M Phorbol 12-myristate 13-acetate (PMA) (Sigma-Aldrich) for 48 h. Ligand treatment of macrophages was performed for further 24 h. To induce foam cell formation macrophages were treated for additional 48 h with 100 µg/mL modified human oxidized low density lipoprotein (oxLDL) obtained from Source BioScience (RP-048). Ligand treatment was performed simultaneously with foam cell formation. Cholesterol loading and treatment was controlled with Oil Red O staining (Alfa Aeser). To investigate ligand induced effects on cell proliferation of THP-1 macrophages CellTiter-Glo Luminescent Cell Viability Assay (Promega) was utilized.
Total RNA isolation and purification was performed by using the RNeasy Mini Kit (QIAGEN) and RNase-Free DNase Set (QIAGEN). cDNA was generated by reverse transcription using the High Capacity cDNA Reverse Transcription Kit (Applied Biosystems). Gene expression was quantified using the SYBR Green PCR Master Mix (Applied Biosystems) and ABI 7900HT Fast Real Time PCR System (Applied Biosystems). In each reaction 0.8 ng/µL cDNA and 0.2 µM primers were used. Gene expression was calculated with the ΔΔCt-method. β-Actin was used for normalisation.

foam cells [3] = assay: microarray genome-wide gene expression and GSEA in foam cells; format: cell-based, human; details: 10 µM
Experimental: Microarray analyses were performed according to instructions of Illumina's TotalPrep RNA Amplification Kit followed by hybridisation on HumanHT-12 v3 or HumanHT-12 v4 Expression BeadChips (illumina). Data analysis was performed with GenomeStudio […].1 (illumina). Differential expression analysis was performed on background-subtracted data with cubic spline normalization and Benjamini-Hochberg FDR correction. […] Gene expression data were submitted in MIAME-compliant form to the NCBI Gene Expression Omnibus database (GSE39079). Bead array data were validated by quantitative real-time PCR. The Gene Distance Matrix was conducted in Euclidean space using the MeV 4.3 software tool [[…]. et al. Biotechniques (2003), 34, 374-378]. Gene Set Enrichment Analysis (GSEA) was performed as described elsewhere [Subramanian A. et al. Proc. Natl. Acad. Sci. […] Enrichment of pathways was tested using the Reactome (v3.0) and the KEGG (v3.0) database from the Molecular Signature Database (MSigDB). Heatmaps were carried out with […]. et al. BMC Bioinformatics (2012), 11, 121]. For presentation of treatment effects in the heatmap, the pathway normalized enrichment score (NES) was adjusted with the appropriate FDR as follows: adjustedNES = (1-FDR) x NES.

macrophages = assay: triglyceride content in macrophages (Triglyceride Assay Kit); format: cell-based, human; details: 10 µM, 48 h
Experimental: THP-1 monocytes were plated out into 24-well plates (Nunc) at a density of 2 x 10^5 cells/well. After differentiation and treatment cells were lysed with 100 µL lysis buffer (PBS, 0.25 M NaCl, 1% Triton X-100). Total and free cholesterol were determined using the colorimetric enzymatic Amplex Red Cholesterol Assay Kit (Invitrogen). Triglycerides were quantified by Triglyceride Assay Kit (BioVision). For normalisation protein content was determined with Pierce 660 nm Protein Assay Reagent (Thermo Scientific).

[4] = biological target: T2, LXRα ligand binding domain (LBD) (Homo sapiens, UniProt Q13133); assay: dual luciferase reporter gene assay with LXRα ligand binding domain in HEK-293 cells; format: cell-based
T2 construct: expressed in transfected cells; host or cells: HEK-293
T2 sequence (Q13133 164-447): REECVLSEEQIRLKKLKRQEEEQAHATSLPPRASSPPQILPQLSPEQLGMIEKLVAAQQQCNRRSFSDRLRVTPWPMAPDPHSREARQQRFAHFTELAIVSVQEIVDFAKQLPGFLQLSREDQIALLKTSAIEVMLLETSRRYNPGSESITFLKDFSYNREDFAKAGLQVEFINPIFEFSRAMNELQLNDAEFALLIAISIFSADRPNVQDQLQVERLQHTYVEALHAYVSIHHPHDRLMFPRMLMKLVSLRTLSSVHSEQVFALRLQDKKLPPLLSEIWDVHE
Experimental: as §1, with “The ligand binding domain (LBD) of LXRα (amino acids 164 to 447) or LXRβ (amino acids 154 to 461) was cloned into pBIND [Renilla/Amp] vector (Promega). Selection” for “Selection”

## C(=C\c1ccc(OCC2CO2)cc1)/c1ccccc1 (centres unmarked) [compound 1, 2-[[4-[(E)-styryl]phenoxy]-methyl]oxirane]
[1]
  Transcriptional activation of LXRβ: does not activate the LXRβ subtype
Foam cells [2]
  expression of LXRα target genes (LXRα, SREBF1, ABCA1, APOE): strongly in foam cells; also recorded: potent target gene expression similar to T09; also recorded: up-regulation of SREBF1 mRNA
Foam cells [3]
  Lipid metabolism processes (gene set enrichment): comparably up-regulated
  triacylglyceride biosynthesis (transcriptional regulation): not regulated
macrophages
  triglyceride level: stayed unchanged
[4]; +DMSO, LXRα reporter gene activation
  EC50: 0.035 µM
[4]; +DMSO, reporter gene transcription vs. T09
  Efficacy: 6%
[4]; reporter-gene assays with LXRα and LXRβ LBD
  specificity LXRα vs. LXRβ: characteristic specificity for LXRα
